According to paper PMC7104545, “Unusually persistent Gαi-signaling of the neuropeptide Y2 receptor depletes cellular Gi/o pools and leads to a Gi-refractory state” (Cell Communication and Signaling : CCS, 2020):
Entries after “also recorded” stand apart in the source; their conditions may differ. Blank lines part the entries; values can stand above or below the compound they belong to. Where a SMILES comes first, the peptide text is derived from it. [ ]: non-standard residue; d: D form. Ahx = NCCCCCC(=O)O

Columns and labels:
[1] = target: T1, human neuropeptide Y2 receptor (hY2R) (Homo sapiens, UniProt P49146); experiment: cAMP reporter gene assay, HEK293-hY2R; format: cell-based; parameters: expressed in transfected cells; host or cells: HEK293 (transient transfection, pEYFP-N1 vector)
T1 sequence (P49146 1-381): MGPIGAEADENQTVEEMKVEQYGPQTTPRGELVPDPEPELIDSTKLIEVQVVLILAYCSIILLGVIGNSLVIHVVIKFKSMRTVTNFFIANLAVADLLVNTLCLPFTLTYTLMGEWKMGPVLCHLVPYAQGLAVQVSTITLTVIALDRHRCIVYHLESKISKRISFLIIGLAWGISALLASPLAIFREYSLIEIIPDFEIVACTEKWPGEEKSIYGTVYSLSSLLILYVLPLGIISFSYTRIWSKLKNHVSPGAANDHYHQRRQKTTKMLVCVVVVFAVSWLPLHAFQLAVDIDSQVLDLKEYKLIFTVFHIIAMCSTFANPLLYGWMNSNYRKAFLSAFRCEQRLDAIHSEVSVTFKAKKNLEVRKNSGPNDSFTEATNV
Experimental: (§1) HEK293 cells were grown in 25 cm^2 culture flask up to 70–80% confluence in a humidified atmosphere at 37 °C and 5% CO2. Co-transfection of 3000 ng pGL4.29[luc2P/CRE/Hygro] (Promega) plasmid and 3000 ng plasmid encoding for the respective receptor was performed using Metafectene® Pro (Biontex Laboratories GmbH) according to the manufacturer’s protocol. One-day post-transfection cells were seeded into white poly-D-lysine covert 96-well plates (Greiner Bio-one) and incubated overnight at 37 °C. For pertussis toxin experiments, medium was supplied with certain concentration (100 ng/ml, 250 ng/ml, 500 ng/ml) of pertussis toxin (Sigma). Two-day post-transfection cAMP experiments were performed with the help of ONE-Glo substrate (Promega), allowing luminescence measurement with the Tecan Infinite M200. […] For recycling, cells were incubated for 60 min with DMEM supplemented with 100 μg/ml CHX (Merck/Calbiochem®). […] As a positive control only 5 μM forskolin were added to the wells. After incubation, medium was exchanged by 30 μl fresh DMEM (RT). 30 μl ONE-Glo substrate was added and after 5 min of incubation the cAMP level was measured by detecting the luminescence. For co-transfection experiments the transfection of two receptors simultaneously and pGL4.29[luc2P/CRE/Hygro] plasmid were performed in a ratio 1:1:1, keeping the total amount of 6000 ng. […] The second stimulation was performed in a peptide concentration range, addressing the respective receptor that was missed in the first round.

[2] = target: T1, human neuropeptide Y2 receptor (hY2R); experiment: TAMRA-NPY uptake in second stimulation, live cell microscopy (HEK293-HA-Y2R-eYFP); format: cell-based; parameters: expressed in transfected cells; host or cells: HEK293 (transient transfection, pEYFP-N1 vector); details: n ≥ 3
Experimental: HEK293 or HEK293-HA-Y2R-eYFP were re-seeded (150.00/well) into sterile poly-D-lysine covered μ-slide 8 wells (Ibidi) and grown in a humidified atmosphere at 37 °C and 5% CO2. For transfection, cells were cultured up to 70–80% confluency and subsequently transfected with 1.0 μg total DNA using Lipofectamine® 2000 transfection reagent (Invitrogen) according to the manufacturer’s protocol. For single transfection in empty HEK293 cells 1.0 μg of HA-Y2R-eYFP-N1 plasmid DNA was used. At the experimental day cells were starved in Opti-MEM® reduced serum medium (Gibco®) containing Hoechst33342 (Sigma) for 30 min at 37 °C. LysoTracker®Blue with a final concentration of 1 μM was used for visualization of the lysosomes. […] For recycling studies, cells were washed twice with acidic wash buffer (50 mM glycine, 100 mM NaCl, pH 3.0) and neutralized once with Hank’s balanced salt solution (HBSS; PAA), followed by a recovery period for 60 min in ligand-free media supplemented with 100 μg/ml cycloheximide (CHX; Merck/Calbiochem®) and with or without 20 mM NH4Cl as an expression inhibitor and recycling inhibitor respectively. […] All microscopy images were obtained using the AxioObserver.Z1 microscope equipped with an ApoTome imaging system (Zeiss, Jena). Within one experimental setup, all images were taken using a fixed exposure time for the single fluorescence channels.
Microscopy pictures were processed with the standard software Axio vision 4.8 and exported as an 8 Bit TIFF file (Tagged Image File Format). The open access software Image J was applied for the analysis of the pictures. For determination of mean cell surface fluorescence (MCSF) ten nonadjacent cells per image were measured using the segmented line function. Calculation of the relative TAMRA fluorescence, the Raw Intensity Density was measured under distinct conditions. The particular background fluorescence of each image was subtracted after every evaluation. Since this program uses the single gray levels for evaluation, the calculated values were evaluated retroactively as relative fluorescence intensity and analyzed with the statistical program GraphPad Prism.

[3] = test system: HEK293-HA-hY2R-eYFP cells; experiment: Intracellular fate of TAMRA-NPY (live cell microscopy, lysosomal stain, EEA1 immunostaining); format: cell-based, human
Experimental: HEK293-HA-hY2R-eYFP cells were seeded on poly-D-lysine coated coverslips (500.000 /well). […] Gradually preparation of all samples was performed in 10 min intervals of 2% paraformaldehyde (PFA)/PBS on ice, 2% PFA/PBS at RT and finally 4% PFA/PBS at RT. Samples were blocked and permeabilized with 10% BSA/0.1% TritonX-100/PBS for 1 h at RT. Incubation with anti-EEA1 (Santa Cruz, sc-33,585) (1:100) in 1% BSA/0.01% TritonX-100/PBS occurred overnight at 4 °C. The next day, samples were treated with anti-rabbit-AF350 (InvitrogenTM) (1:400) in 1% BSA/0.01% TritonX- 100/PBS for 2 h at RT and mounted with Fluoromount-G®.

HEK293-hY2R cells = experiment: Cell toxicity by microscopy (cell morphology); format: cell-based, human; details: PTX 250 ng/ml
[4] = test system: melanocortin 1 receptor (MCR1); experiment: cAMP assay, HEK293 co-transfected hY2R/melanocortin 1 receptor; format: cell-based; details: PTX present; first stimulation 1 μM NPY
Experimental: HEK293 cells were grown in 25 cm^2 culture flask up to 70–80% confluence in a humidified atmosphere at 37 °C and 5% CO2. Co-transfection of 3000 ng pGL4.29[luc2P/CRE/Hygro] (Promega) plasmid and 3000 ng plasmid encoding for the respective receptor was performed using Metafectene® Pro (Biontex Laboratories GmbH) according to the manufacturer’s protocol. One-day post-transfection cells were seeded into white poly-D-lysine covert 96-well plates (Greiner Bio-one) and incubated overnight at 37 °C. For pertussis toxin experiments, medium was supplied with certain concentration (100 ng/ml, 250 ng/ml, 500 ng/ml) of pertussis toxin (Sigma). Two-day post-transfection cAMP experiments were performed with the help of ONE-Glo substrate (Promega), allowing luminescence measurement with the Tecan Infinite M200. […] For recycling, cells were incubated for 60 min with DMEM supplemented with 100 μg/ml CHX (Merck/Calbiochem®). […] As a positive control only 5 μM forskolin were added to the wells. After incubation, medium was exchanged by 30 μl fresh DMEM (RT). 30 μl ONE-Glo substrate was added and after 5 min of incubation the cAMP level was measured by detecting the luminescence. For co-transfection experiments the transfection of two receptors simultaneously and pGL4.29[luc2P/CRE/Hygro] plasmid were performed in a ratio 1:1:1, keeping the total amount of 6000 ng. […]

adenylyl cyclase = experiment: Impact of Ca^2+ and PKC on cellular cAMP level, HEK293-hY2R-eYFP; format: cell-based; details: 10 µM PKC inhibitor 30 min prior to stimulation with peptide; n≥2
[5] = target: T1, human neuropeptide Y2 receptor (hY2R); parameters: expressed in transfected cells; host or cells: HEK293 (transient transfection, pEYFP-N1 vector); details: ref [29]; cited from earlier work
Source text: Contrary to the obviously low arrestin binding affinity, the unoccupied receptor apparently exists in a conformation that strongly favors G protein coupling. Kaiser et al. recently reported two different affinity states concerning Y2R binding properties. […].

hY2R = target: T2, hY2R (Homo sapiens, UniProt P49146); experiment: cAMP assay, HEK293 co-transfected hY2R/hY1R, Y2R addressed; format: cell-based
T2 construct: expressed in transfected cells; host or cells: HEK293 (transient transfection, pEYFP-N1 vector)
T2 sequence (P49146 1-381): T1 sequence (P49146 1-381)
Experimental: as §1

hY4R = experiment: Ca^2+-flux assay, HEK293 co-transfected hY2R/hY4R, PP to address Y4R; format: cell-based, human; details: 1 μM NPY first, acidic wash, 60 min recovery; Fig. S3B; n≥2
Experimental: (§2) HEK293 cells were grown in 25 cm^2 culture flask up to 70–80% confluence in a humidified atmosphere at 37 °C and 5% CO2. Co-transfection of 800 ng plasmid encoding the GαΔ6qi4myr protein and 3200 ng plasmid encoding for the Y2R fused C-terminally to eYFP was performed by using Metafectene® Pro (Biontex Laboratories GmbH) according to manufacturer’s protocol. One-day post transfection, cells were re-seeded (100.000 cells/well) into a black poly-D-lysine covert 96-well plates (Greiner Bio-one) and incubated overnight at 37 °C. Two-days post transfection Ca^2+ experiments were performed with the help of the FLIPR® Calcium Assay Kit (Molecular Devices). […] For recycling, cells were incubated for 60 min with assay buffer (20 mM HEPES, 2.5 mM Probenecid in HBSS, pH 7.5) supplemented with 100 μg/ml CHX (Merck/Calbiochem®) and 1 μM Fluor-2-AM staining dye. […] For the GαΔ6qi4myr overexpression experiments, the transfection ratio between receptor DNA and G protein DNA was varied from the initial concentration 4:1, using a total DNA amount of 4000 ng. By keeping the G protein amount equal to 800 ng, the resulting discrepancy was filled with pcDNA3.

[6] = target: T3, neuropeptide Y2R (endogenous in SH-SY5Y cells) (Homo sapiens, UniProt P49146); experiment: Ca^2+-flux assay, SH-SY5Y cells transfected with chimeric Gqi; format: cell-based
T3 construct: SH-SY5Y cells that endogenously expressing Y2R; endogenous in cells; host or cells: SH-SY5Y (transiently transfected with chimeric Gqi protein only)
T3 sequence (P49146 1-381): T1 sequence (P49146 1-381)
Experimental: as §2

Compound: TAMRA-NPY: fluorescent NPY derivative, 5-carboxytetramethylrhodamine (TAMRA)-NPY
TAMRA-NPY internalization in second stimulation, comparison 0 RE vs 60 RE ± NH4Cl ([2]; 1 μM NPY first, then 100 nM TAMRA-NPY 60 min): no difference in TAMRA internalization
TAMRA-NPY uptake, 0 RE ([2]; 1 μM NPY, acidic wash, direct second stimulation 100 nM TAMRA-NPY 60 min, 37 °C, control = 100%): 45 ± 5%
TAMRA-NPY uptake, 60 RE ([2]; 1 μM NPY, wash, 60 min recovery with CHX, then 100 nM TAMRA-NPY 60 min, control = 100%): 49 ± 4%
TAMRA-NPY uptake, 60 RE + NH4Cl ([2]; as 60 RE with 20 mM NH4Cl during recovery, control = 100%): 48 ± 46%
localisation after 60 min recycling period ([3]; 100 nM TAMRA-NPY, lysosomal marker LysoTracker Blue): degradation in lysosomes; also recorded: co-localized with the lysosomal marker
localisation in early endosomes ([3]; EEA1 immunostaining): intracellular accumulation of TAMRA-NPY in early and sorting endosomes
co-internalization with receptor ([3]; TAMRA-NPY 60 min, 37 °C): Co-internalization of the ligand-receptor-complex was observed

Compound: pertussis toxin [PTX]
cell toxicity (cell morphology) (HEK293-hY2R cells): no differences in cell morphology were observed
effect on inhibitory effect of Y2R (MCR1/Y2R cells) [4]: completely abolished; also recorded: abolishing the slight inhibitory effect
effect on maximal forskolin-induced cAMP response after NPY ([1]; PTX 250 ng/ml, treatment of cells with NPY first): AC-activity is rescued; also recorded: clearly rescued the maximal cAMP response; also recorded: adenylyl cyclase was still activatable by forskolin
effect of varying PTX concentrations on AC-activity ([1]; PTX 100, 250, 500 ng/ml, compared to control curve (Fig. 3f)): caused inhibition of AC-activity compared to control curve

Compound: CN(C)CCCn1cc(C2=C(c3c[nH]c4ccccc34)C(=O)NC2=O)c2ccccc21 [Bisindolylmaleimide I]
effect of PKC inhibitor on adenylyl cyclase inhibition (adenylyl cyclase): abolished inhibitory effect of adenylyl cyclases and Y2R downstream signaling

Compound: Nc1nc2c(ncn2[C@@H]2O[C@H](COP(=O)(O)OP(=O)(O)OP(O)(O)=S)[C@@H](O)[C@H]2O)c(=O)[nH]1 [GTPγS, Guanosine 5′-O-[gamma-thio] triphosphate]
effect of GTPγS on total binding [5]: loss in total binding

Compound: CC[C@H](C)[C@H](NC(=O)[C@H](Cc1ccc(O)cc1)NC(=O)[C@H](Cc1c[nH]cn1)NC(=O)[C@H](CCCNC(=N)N)NC(=O)CCCCCNC(=O)[C@H](CCCCN)NC(=O)[C@H](CO)NC(=O)[C@@H]1CCCN1C(=O)[C@@H](N)Cc1ccc(O)cc1)C(=O)N[C@@H](CC(N)=O)C(=O)N[C@@H](CC(C)C)C(=O)N[C@H](C(=O)N[C@H](C(=O)N[C@@H](CCCNC(=N)N)C(=O)N[C@@H](CCC(N)=O)C(=O)N[C@@H](CCCNC(=N)N)C(=O)N[C@@H](Cc1ccc(O)cc1)C(N)=O)[C@@H](C)O)[C@@H](C)CC [Ahx^5–24-NPY] (H-YPSK[Ahx]RHYINLITRQRY-NH2)
Emax (hY2R; HEK293, second stimulation after 1 μM F^7,P^34-NPY and 60 min recovery, Ahx^5–24-NPY control curve = 100%): 74%

More lines, main results first:

increase of baseline intracellular cAMP by forskolin ([1]; 5 μM forskolin, Y2R-expressing HEK293, without NPY): ~ 10 fold
Compound: C=C[C@@]1(C)CC(=O)[C@]2(O)[C@@]3(C)[C@@H](O)CCC(C)(C)[C@@H]3[C@H](O)[C@H](OC(C)=O)[C@@]2(C)O1 [forskolin]

Ca^2+ activity in SH-SY5Y ([6]; SH-SY5Y, endogenous background, n≥3): no activity
Compound: pancreatic polypeptide [PP]
Ca^2+ response of PP after first stimulation with NPY (hY4R): obvious loss in activity, since no Ca^2+response was measured

EC50 (hY2R; Y1R/Y2R co-transfected HEK293, no first stimulation): 14 nM
EC50 (hY2R; second stimulation after 1 μM F^7,P^34-NPY and 60 min recovery): 28 nM
EC50 ([6]; no first stimulation, SH-SY5Y + Gqi, n ≥ 3): 41.9 nM
Compound: CC[C@H](C)[C@H](NC(=O)[C@H](Cc1ccc(O)cc1)NC(=O)[C@H](Cc1cnc[nH]1)NC(=O)[C@H](CCCNC(=N)N)NC(=O)CCCCCNC(=O)[C@H](CCCCN)NC(=O)[C@H](CO)NC(=O)[C@@H]1CCCN1C(=O)[C@@H](N)Cc1ccc(O)cc1)C(=O)N[C@@H](CC(N)=O)C(=O)N[C@@H](CC(C)C)C(=O)N[C@H](C(=O)N[C@H](C(=O)N[C@@H](CCCNC(=N)N)C(=O)N[C@@H](CCC(N)=O)C(=O)N[C@@H](CCCNC(=N)N)C(=O)N[C@@H](Cc1ccc(O)cc1)C(N)=O)[C@@H](C)O)[C@@H](C)CC [Ahx^5–24-NPY] (H-YPSK[Ahx]RHYINLITRQRY-NH2)
